In patent US12286442B2, “Methods and materials for increasing transcription factor eb polypeptide levels” (University of Pittsburgh—Of the Commonwealth System of …, priority 2019, dated 2025):

Tests used:
TFEB = assay: High content screen measuring TFEB nuclear accumulation (TFEB nuclear/cytosol ratio) in BEAS-2B cells stably expressing TFEB-EGFP; type: cell-based, human; conditions: 18 hours incubation
In short: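 Readout: lowest compound concentration giving a 25% rise in nuclear/cytosol TFEB-GFP ratio, from DAPI-masked nuclear and mask-expanded cytosolic signals. Cells (BEAS-2B, TFEB-EGFP stable, ~2300–2500/well) rested 8 hours, then treated 18 hours with compound serial dilutions in 2% FBS medium before PFA fixation and DAPI staining.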

BEAS-2B cells = assay: Toxicity: compound concentration needed to induce greater than 50 percent of cell loss; type: cell-based, human; conditions: 18 hours incubation
In short: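 Reported value is the concentration giving greater than 50 percent cell loss, grouped into bins (≥25 μM; between 1 and 25 μM; ≤1 μM as "+++"). Measured by high-content imaging of DAPI-stained BEAS-2B TFEB-EGFP cells fixed after 18 h compound exposure.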

SMILES | efficacy (minimal compound concentration needed to increase TFEB nuclear/cytosol ratio by 25%) (TFEB) | toxicity (compound concentration needed to induce greater than 50 percent of cell loss) (BEAS-2B cells)
COc1ccc(-n2c(=O)c3ccc(C(=O)NCc4ccc(C)cc4)cc3n(CC(=O)Nc3cc(C)[nH]n3)c2=O)cc1 [Compound 218] | + (“+” equals >25 μM) | + (cell loss of greater than 50 percent at a concentration that equals or is greater than 25 μM was represented as)
Cc1cc(F)cc(Nc2nc(-c3ccncc3C)nc3ccccc23)c1 [Compound 53] | + (“+” equals >25 μM) | + (cell loss of greater than 50 percent at a concentration that equals or is greater than 25 μM was represented as)
Cc1nc2ccc(Nc3nc(-c4ccncc4)nc4ccncc34)cc2s1 [Compound 118] | ++ (“++” equals between ≤25 μM and >1 μM) | + (cell loss of greater than 50 percent at a concentration that equals or is greater than 25 μM was represented as)
CN(C)CCn1c(=O)n(-c2ccccc2)c(=O)c2ccccc21 [Compound 228] | + (“+” equals >25 μM) | + (cell loss of greater than 50 percent at a concentration that equals or is greater than 25 μM was represented as)
c1ccc2c(Nc3ccc4cn[nH]c4c3)nc(-c3cncs3)nc2c1 [Compound 389] | + (“+” equals >25 μM) | + (cell loss of greater than 50 percent at a concentration that equals or is greater than 25 μM was represented as)
Fc1ccc2c(Nc3ccc4[nH]ccc4c3)nc(-c3ccncc3)nc2c1 [Compound 112] | +++ (“+++” equals ≤1 μM) | + (cell loss of greater than 50 percent at a concentration that equals or is greater than 25 μM was represented as)
Fc1cc(Nc2nc(-c3cncs3)nc3ccccc23)cc2cc[nH]c12 [Compound 395] | +++ (“+++” equals ≤1 μM) | + (cell loss of greater than 50 percent at a concentration that equals or is greater than 25 μM was represented as)
c1ccc2c(Nc3ccc4c(c3)OCO4)nc(-c3ccncc3)nc2c1 [Compound 12] | +++ (“+++” equals ≤1 μM) | + (cell loss of greater than 50 percent at a concentration that equals or is greater than 25 μM was represented as)
c1cnc2c(Nc3ccc4[nH]ccc4c3)nc(-c3ccncc3)nc2c1 [Compound 83] | ++ (“++” equals between ≤25 μM and >1 μM) | + (cell loss of greater than 50 percent at a concentration that equals or is greater than 25 μM was represented as)
CC(C)c1nc2ccc(Nc3nc(-c4ccncc4)nc4ccncc34)cc2s1 [Compound 120] | + (“+” equals >25 μM) | + (cell loss of greater than 50 percent at a concentration that equals or is greater than 25 μM was represented as)
Cc1nc2ccc(Nc3nc(-c4ccncc4)cc4ncccc34)cc2s1 [Compound 400] | +++ (“+++” equals ≤1 μM) | + (cell loss of greater than 50 percent at a concentration that equals or is greater than 25 μM was represented as)
Fc1ccc(Nc2nc(-c3ccncc3)nc3ccccc23)cc1F [Compound 183] | ++ (“++” equals between ≤25 μM and >1 μM) | + (cell loss of greater than 50 percent at a concentration that equals or is greater than 25 μM was represented as)
CC(C)c1nc2ccc(Nc3nc(-c4ccncc4)nc4cc(F)ccc34)cc2s1 [Compound 355] | ++ (“++” equals between ≤25 μM and >1 μM) | + (cell loss of greater than 50 percent at a concentration that equals or is greater than 25 μM was represented as)
CCc1nc2ccc(Nc3nc(-c4ccncc4)nc4ncccc34)cc2s1 [Compound 129] | +++ (“+++” equals ≤1 μM) | + (cell loss of greater than 50 percent at a concentration that equals or is greater than 25 μM was represented as)
N#Cc1c[nH]c2ccc(Nc3nc(-c4ccncc4)nc4ccccc34)cc12 [Compound 38] | + (“+” equals >25 μM) | + (cell loss of greater than 50 percent at a concentration that equals or is greater than 25 μM was represented as)
CC(C)c1nc2ccc(Nc3nc(-c4ccncc4)cc4ncccc34)cc2s1 [Compound 240] | +++ (“+++” equals ≤1 μM) | + (cell loss of greater than 50 percent at a concentration that equals or is greater than 25 μM was represented as)
c1ccc2c(Nc3ccc4nc(C5CC5)sc4c3)nc(-c3ccncc3)nc2c1 [Compound 91] | +++ (“+++” equals ≤1 μM) | + (cell loss of greater than 50 percent at a concentration that equals or is greater than 25 μM was represented as)
Cc1ccc(NC(=O)Cn2c(=O)n(-c3ccccc3)c(=O)c3ccc(C(=O)NCc4ccco4)cc32)cc1 [Compound 219] | + (“+” equals >25 μM) | + (cell loss of greater than 50 percent at a concentration that equals or is greater than 25 μM was represented as)
Cc1c(-c2ccncc2)nc(Nc2ccc3nc(C4CC4)sc3c2)c2cccnc12 [Compound 333] | +++ (“+++” equals ≤1 μM) | + (cell loss of greater than 50 percent at a concentration that equals or is greater than 25 μM was represented as)
Cc1ccc(-c2nc(Nc3ccccc3F)c3ccccc3n2)cc1 [Compound 201] | + (“+” equals >25 μM) | + (cell loss of greater than 50 percent at a concentration that equals or is greater than 25 μM was represented as)
c1ccc(CCNc2nc(-c3ccncc3)nc3ccccc23)cc1 [Compound 167] | ++ (“++” equals between ≤25 μM and >1 μM) | + (cell loss of greater than 50 percent at a concentration that equals or is greater than 25 μM was represented as)
c1ccc2c(Nc3ccc4[nH]ncc4c3)nc(-c3ccncc3)cc2c1 [Compound 48] | + (“+” equals >25 μM) | + (cell loss of greater than 50 percent at a concentration that equals or is greater than 25 μM was represented as)
CCc1nc2ccc(Nc3nc(-c4ccncc4)nc4ccc(C)cc34)cc2s1 [Compound 147] | ++ (“++” equals between ≤25 μM and >1 μM) | + (cell loss of greater than 50 percent at a concentration that equals or is greater than 25 μM was represented as)
Cc1cc(F)cc(Nc2nc(-c3ccncc3)nc3ccccc23)c1 [Compound 1] | +++ (“+++” equals ≤1 μM) | + (cell loss of greater than 50 percent at a concentration that equals or is greater than 25 μM was represented as)
c1ccc2c(Nc3ccc4[nH]ncc4c3)nc(C3CCNCC3)nc2c1 [Compound 76] | + (“+” equals >25 μM) | + (cell loss of greater than 50 percent at a concentration that equals or is greater than 25 μM was represented as)
COc1cccc2nc(-c3ccncc3)nc(Nc3ccc4[nH]ccc4c3)c12 [Compound 109] | +++ (“+++” equals ≤1 μM) | + (cell loss of greater than 50 percent at a concentration that equals or is greater than 25 μM was represented as)
Fc1ccccc1Nc1nc(-c2ccncc2)nc2ccccc12 [Compound 180] | + (“+” equals >25 μM) | + (cell loss of greater than 50 percent at a concentration that equals or is greater than 25 μM was represented as)
COc1cc(C)cc(Nc2nc(-c3ccncc3)nc3ccccc23)c1 [Compound 20] | ++ (“++” equals between ≤25 μM and >1 μM) | + (cell loss of greater than 50 percent at a concentration that equals or is greater than 25 μM was represented as)
Cc1ccc(Nc2nc(-c3ccccc3Cl)nc3ccccc23)c(C)c1 [Compound 199] | + (“+” equals >25 μM) | + (cell loss of greater than 50 percent at a concentration that equals or is greater than 25 μM was represented as)
Nc1c(Cl)cc(Nc2nc(-c3ccncc3)nc3ccccc23)cc1Cl [Compound 162] | + (“+” equals >25 μM) | + (cell loss of greater than 50 percent at a concentration that equals or is greater than 25 μM was represented as)
